From PubChem BioAssay (NCI)
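Briefly, cells in 96-well plates were exposed to five compound concentrations for 48 h, and endpoints were estimated by linear interpolation. GI50: concentration for 50% inhibition of growth. TGI marks complete inhibition of growth.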

Experiments:
Experiment in all cases: inhibition of tumour cell growth, NCI panel, 48 h
[1] = tested on: SK-MEL-5 melanoma
[2] = tested on: 786-0 renal
[3] = tested on: HT29 colon
[4] = tested on: K-562 leukemia
[5] = tested on: SNB-75 CNS
[6] = tested on: SN12C renal
[7] = tested on: OVCAR-3 ovarian
[8] = tested on: HL-60(TB) leukemia
[9] = tested on: MDA-MB-435
[10] = tested on: U251 CNS
[11] = tested on: NCI-H460 lung
[12] = tested on: PC-3 prostate
[13] = tested on: SK-MEL-2 melanoma
[14] = tested on: CAKI-1 renal
[15] = tested on: HS 578T breast
[16] = tested on: OVCAR-8 ovarian
[17] = tested on: MCF7 breast
[18] = tested on: HCT-116 colon
[19] = tested on: IGROV1 ovarian
[20] = tested on: HCT-15 colon
[21] = tested on: T-47D breast
[22] = tested on: SW-620 colon
[23] = tested on: CCRF-CEM leukemia
[24] = tested on: NCI-H522 lung
[25] = tested on: RPMI-8226 leukemia
[26] = tested on: SK-MEL-28 melanoma
[27] = tested on: TK-10 renal
[28] = tested on: SK-OV-3 ovarian
[29] = tested on: RXF 393 renal
[30] = tested on: HCC-2998 colon
[31] = tested on: NCI-H23 lung
[32] = tested on: NCI/ADR-RES ovarian
[33] = tested on: HOP-92 NSCLC
[34] = tested on: MDA-MB-468 breast
[35] = tested on: OVCAR-5 ovarian
[36] = tested on: COLO 205 colon
[37] = tested on: SF-539 CNS
[38] = tested on: ACHN renal
[39] = tested on: OVCAR-4 ovarian
[40] = tested on: SF-295 CNS
[41] = tested on: A498 renal
[42] = tested on: UACC-62 melanoma
[43] = tested on: MALME-3M melanoma
[44] = tested on: SF-268 CNS
[45] = tested on: KM12 colon
[46] = tested on: BT-549 breast
[47] = tested on: EKVX NSCLC
[48] = tested on: MOLT-4 leukemia
[49] = tested on: DU-145 prostate
[50] = tested on: UO-31 renal
[51] = tested on: SR leukemia
[52] = tested on: HOP-62 NSCLC
[53] = tested on: NCI-H226 lung
[54] = tested on: MDA-MB-231 breast
[55] = tested on: UACC-257 melanoma
[56] = tested on: A549 NSCLC
[57] = tested on: SNB-19 CNS
[58] = tested on: LOX IMVI melanoma
[59] = tested on: M14 melanoma

**Q.** What does the source list for `O=C(c1ccc(O)cc1)C1[C@H](c2ccc(Cl)cc2)[C@@H](c2ccccc2)NC12C(=O)Nc1ccccc12` (stereo partly drawn)?
**A.** GI50 [1]: 6.91 µM; TGI [1]: 12.7 µM; GI50 [2]: 6.25 µM; TGI [2]: 12.2 µM; GI50 [3]: 6.11 µM; TGI [3]: 13.3 µM; GI50 [4]: 8.89 µM; TGI [4]: 42 µM; GI50 [5]: 5.25 µM; TGI [5]: 11 µM; GI50 [6]: 6.26 µM; TGI [6]: 12 µM; GI50 [7]: 6.95 µM; TGI [7]: 13.9 µM; GI50 [8]: 7.96 µM; TGI [8]: 25.6 µM; GI50 [9]: 7.01 µM; TGI [9]: 13.6 µM; GI50 [10]: 6.57 µM; TGI [10]: 12.7 µM; GI50 [11]: 7.63 µM; TGI [11]: 15.3 µM; GI50 [12]: 4.32 µM; TGI [12]: 11.7 µM; GI50 [13]: 6.03 µM; TGI [13]: 12.1 µM; GI50 [14]: 5.19 µM; TGI [14]: 10.8 µM; GI50 [15]: 6.96 µM; TGI [15]: 18.8 µM; GI50 [16]: 7.2 µM; TGI [16]: 14.1 µM; GI50 [17]: 7.26 µM; TGI [17]: 17.2 µM; GI50 [18]: 6.22 µM; TGI [18]: 12.8 µM; GI50 [19]: 5.18 µM; TGI [19]: 10.6 µM; GI50 [20]: 5.6 µM; TGI [20]: 12.4 µM; GI50 [21]: 5.14 µM; TGI [21]: 12.9 µM; GI50 [22]: 8.11 µM; TGI [22]: 16 µM; GI50 [23]: 5.9 µM; TGI [23]: 19.8 µM; GI50 [24]: 6.05 µM; TGI [24]: 12.5 µM; GI50 [25]: 8.61 µM; TGI [25]: 29.9 µM; GI50 [26]: 7.02 µM; TGI [26]: 12.9 µM; GI50 [27]: 6.8 µM; TGI [27]: 13.2 µM; GI50 [28]: 7.32 µM; TGI [28]: 14 µM; GI50 [29]: 5.77 µM; TGI [29]: 11.5 µM; GI50 [30]: 6.27 µM; TGI [30]: 12 µM; GI50 [31]: 6.29 µM; TGI [31]: 12.3 µM; GI50 [32]: 5.72 µM; TGI [32]: 11.8 µM; GI50 [33]: 6.03 µM; TGI [33]: 12.4 µM; GI50 [34]: 4.86 µM; TGI [34]: 10.3 µM; GI50 [35]: 6.42 µM; TGI [35]: 12.1 µM; GI50 [36]: 7.17 µM; TGI [36]: 15.3 µM; GI50 [37]: 7.02 µM; TGI [37]: 12.8 µM; GI50 [38]: 6.08 µM; TGI [38]: 11.6 µM; GI50 [39]: 7.17 µM; TGI [39]: 16.3 µM; GI50 [40]: 5.63 µM; TGI [40]: 11 µM; GI50 [41]: 5.89 µM; TGI [41]: 11.8 µM; GI50 [42]: 5 µM; TGI [42]: 10.2 µM; GI50 [43]: 6.68 µM; TGI [43]: 12.4 µM; GI50 [44]: 7 µM; TGI [44]: 15.8 µM; GI50 [45]: 7.65 µM; TGI [45]: 16.1 µM; GI50 [46]: 8.32 µM; TGI [46]: 14.6 µM; GI50 [47]: 5.3 µM; TGI [47]: 10.9 µM; GI50 [48]: 4.84 µM; TGI [48]: 18.7 µM; GI50 [49]: 7.77 µM; TGI [49]: 15.4 µM; GI50 [50]: 4.73 µM; TGI [50]: 9.79 µM; GI50 [51]: 5.14 µM; TGI [51]: 42 µM; GI50 [52]: 6.99 µM; TGI [52]: 14.7 µM; GI50 [53]: 5.37 µM; TGI [53]: 11.8 µM; GI50 [54]: 5.38 µM; TGI [54]: 10.8 µM; GI50 [55]: 6.79 µM; TGI [55]: 12.9 µM; GI50 [56]: 5.8 µM; TGI [56]: 12.2 µM; GI50 [57]: 6.71 µM; TGI [57]: 12.4 µM; GI50 [58]: 4.97 µM; TGI [58]: 10.1 µM; GI50 [59]: 6.19 µM; TGI [59]: 13.6 µM
